How the values were obtained:
[1] = test system: A549 human lung carcinoma epithelial cells; assay: SRB cytotoxicity assay, A549 cells; conditions: for Selectivity Index (SI): A549 (cancerous) versus NIH/3T3 (non-cancerous), SRB 72 h; for IC50: Homo sapiens, A549, 72 h, read-out: IC50, cytotoxicity against A549 cells
Protocol: After incubation, cells were fixed with trichloroacetic acid (Cat. No. T4885, Sigma-Aldrich, USA), stained with SRB (Cat. No. S9012, Sigma-Aldrich, USA), and the absorbance was measured at 515 nm. Percent cell death was calculated using the following equation: % Cell death=(ODc−OD0)‐(ODs−OD0)/(ODc−OD0)×100
OD0 = Optical density of cells before treatment (baseline reading).
ODC = Optical density of untreated control cells after 72 h.
ODS = Optical density of cells treated with the test sample after 72 h.
Non-linear regression analysis was performed using GraphPad Prism to calculate the IC50 value. This value reflects the concentration needed to inhibit cell growth by 50%.
All data are presented as mean ± standard error of the mean (SEM) and were collected from three separate experiments. Statistical analyses were conducted using Student’s t-test or ANOVA, followed by Tukey’s multiple comparisons test. Significance is indicated by *p < 0.05, **p < 0.01, and ***p < 0.001.

[2] = Ferric-reducing antioxidant power (FRAP) assay
Protocol: The FRAP assay was used to evaluate antioxidant activity based on the ability of the sample to reduce Fe^3+-TPTZ (2,4,6-tris(2-pyridyl)-S-triazine) to Fe^2+-TPTZ (Benzie and Strain [1996]). This reduction results in a color change from colorless to blue. The absorbance was measured at 593 nm using a Microplate Reader (BioTek ELx800 Instruments Inc. Winooski, Vermont, USA) with the Gen 5 software for FRAP value calculations. A ferrous sulfate heptahydrate (FeSO4 · 7H2O) (Cat. No. 215422, Sigma-Aldrich, USA) standard curve, ranging from 1000 µM to 50 µM, was prepared for the assay. The FRAP reagent consists of 300 mM sodium acetate buffer (pH 3.6) (Cat. No. 90358, Sigma-Aldrich, USA), 10 mM TPTZ solution (Cat. No. T1253, Sigma-Aldrich, USA), and 20 mM ferric (III) chloride hexahydrate (FeCl3 · 6H2O) (Cat. No. 236489, Sigma-Aldrich, USA) in a 10:1:1 ratio, respectively, and heated to 37 °C for ten minutes before use. A blank was measured at 593 nm with 150 µL FRAP reagent added to each well of a 96-well microtiter plate. Samples (20 µL of each sample) (1, 0.5, 0.25 mg/mL) and ascorbic acid (Sigma-Aldrich, Cat. No. A4403) positive control (1 mg/mL) were added in triplicates. Reducing capacity was expressed by FRAP values in an µM FeSO4/µg sample unit.

Compound | Selectivity Index (SI) [1] | IC50 [1] [µM] | FRAP ([2]; FeSO4 standard curve) [µM] | FRAP ([2]; µM FeSO4/µg sample) [µM/µg] | cytotoxic response against A549 cells (in words) ([1]; SRB assay, 72 h, highest concentration tested 100 µg/ml)
CC(C)CCC[C@@H](C)[C@H]1CCC2[C@]1(C)CC=C1[C@]23C=C[C@]2(C[C@@H](O)CC[C@]12C)OO3 (stereo partly drawn) [Compound 11, (3β-5α-8α)5,8-epidioxycholesta-6,9(1)-diene-3-ol] | 1.05 | 137 ± 4.4 | – | – | –
CC(C)CCC[C@@H](C)[C@H]1CC[C@H]2[C@@H]3CC=C4C[C@@H](O)CC[C@]4(C)[C@H]3CC[C@]12C [Compound 9, cholesterol] | 1.03 | 176 ± 5.3 | – | – | –
CC(C)CCC[C@@H](C)[C@H]1CCC2[C@@]34C=C[C@]5(C[C@@H](O)CC[C@]5(C)C3CC[C@@]21C)OO4 (stereo partly shown) [Compound 10, 7-dehydrochoresterol peroxide] | 1.12 | 86.1 | 204.07 | 2.55 ± 0.02 | –
Nc1ccn([C@H]2C[C@H](O)[C@@H](CO)O2)c(=O)n1 [Compound 1, deoxycytidine] | – | – | – | 0.41 ± 0.03 | no cytotoxic response

Source: PMC12203697, “Bioactive constituents from the edible seaweed Halymenia hawaiiana (Rhodophyta)” (Pharmaceutical Biology, 2025)
